Data on ten compounds can be found in US12600721B2, “TYK2 inhibitors and uses thereof” (Sudo Biosciences Limited, priority 2021, dated 2026).

One experiment has as its target T1, TYK2-JH1 (Homo sapiens, UniProt P29597).
T1 construct: using a recombinant purified His or GST-tagged catalytic domain for each enzyme; made in house
T1 sequence (P29597 897-1176 limits assumed): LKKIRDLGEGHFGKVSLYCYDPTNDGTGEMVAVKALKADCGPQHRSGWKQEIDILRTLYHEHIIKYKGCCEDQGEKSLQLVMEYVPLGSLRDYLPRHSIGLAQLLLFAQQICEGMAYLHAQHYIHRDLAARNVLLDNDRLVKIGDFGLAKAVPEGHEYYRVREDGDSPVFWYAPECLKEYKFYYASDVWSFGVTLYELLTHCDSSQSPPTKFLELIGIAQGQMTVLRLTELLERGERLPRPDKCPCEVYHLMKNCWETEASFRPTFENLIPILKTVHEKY
Put plainly: HTRF-based selectivity assay, TYK2 catalytic domain. It counts as biochemical. Particulars: kinase domain (JH1), 20 μM ATP. The method, then:
(§1) The ability of compounds to inhibit the activity of JAK1, JAK2, JAK3 and TYK2 is measured using a recombinant purified His or GST-tagged catalytic domain for each enzyme (JAK1, JAK2 and TYK2 are generated in-house; JAK3 was purchased from Carna biosciences, Cat #08-046) in an HTRF format biochemical assay. The reactions employs a commercial peptide substrate from Cisbio (Cat #62TK0PEC). The basic assay protocol is as follows: first, 2.5 μL of diluted compounds (4×) in DMSO are dispensed into a 384-well Optiplate. Next, 2.5 μL of enzyme (final concentrations for enzymes are: TYK2-700 ng/mL, JAK1-80.6 ng/ml, JAK2-2.1 ng/ml and JAK3-171.8 ng/mL) is added and incubated at RT for 5-20 min. Finally, 5 μl of mixture of 2×ATP [Final concentration 20 μM for TYK2, 21.43 μM for JAK1, 14.7 μM for JAK2 and 2.12 μM for JAK3]+2× Substrate [Final concentration 217 nM for TYK2, 454.7 nM for JAK1, 200 nM for JAK2 and 257.4 nM for JAK3] is added to 384 well Optiplate. Composition of Kinase assay buffer used in the assay is as follows: HEPES 50 mM, EGTA 1 mM, MgCl2 10 mM, DTT 2 mM, Tween-20 0.01% and water. Then the plates are shaken and then incubated at 26.5° C. for 60 min.

Experiment [1] deals with HEK-Blue IL-2 reporter cells. Put plainly: HEK-Blue IL-2 reporter assay (SEAP) for determining selectivity. The format is cell-based. Particulars: HEK-Blue IL-2 cells, 4 ng/ml human recombinant IL-2, SEAP reporter. The method, then: (§2) HEK-Blue™ IL-2 and IFNγ reporter cells with a stably-integrated cytokine receptor and STAT5 or STAT1 express STAT-inducible secreted embryonic alkaline phosphatase (SEAP) reporter gene upon cytokine stimulation. These cells were plated in DMEM (Gibco) containing 10% heat-inactivated FBS (Gibco) and 100 U/mL PenStrep (Gibco) at 37° C. under 5% CO2 conditions for 20-22 hours. The cells were then pretreated with serially diluted test compounds for 60 min prior to stimulation with either 4 ng/ml human recombinant IL-2 (Miltenyl Biotech) or 50 ng/ml human recombinant IFNγ (InvivoGen) for 24 hours. SEAP induction was measured using the QUANTI-Blue™ Solution (InvivoGen) according to the manufacturer's instructions.
Background: A reporter such as luciferase makes a cellular process visible.

In the next experiment the target is T2, JAK2-JH1 (Homo sapiens, UniProt O60674).
T2 construct: using a recombinant purified His or GST-tagged catalytic domain for each enzyme; made in house
The experiment is described as follows: HTRF-based selectivity assay, JAK2 catalytic domain. It counts as biochemical. Particulars: kinase domain (JH1), 14.7 μM ATP. As to the method: as §1

A further experiment deals with T3, JAK1-JH1 (Homo sapiens, UniProt P23458).
T3 construct: using a recombinant purified His or GST-tagged catalytic domain for each enzyme; made in house
Put plainly: HTRF-based selectivity assay, JAK1 catalytic domain. It counts as biochemical. Particulars: kinase domain (JH1), 21.43 μM ATP. The method, then:
as §1
(In general: TR-FRET usually uses a lanthanide donor and a delayed reading to cut background.)

In experiment [2] the test system is HEK-Blue IFNγ reporter cells. Put plainly: HEK-Blue IFNγ reporter assay (SEAP) for determining selectivity. Particulars: 50 ng/ml human recombinant IFNγ, read-out: IFN-γ IC50 (SEAP selectivity). It counts as cell-based. As to the method:
as §2

Another experiment has as its target T4, JAK3-JH1 (Homo sapiens, UniProt P52333).
T4 construct: using a recombinant purified His or GST-tagged catalytic domain for each enzyme; purchased Carna biosciences 08-046
Put plainly: HTRF-based selectivity assay, JAK3 catalytic domain. Particulars: kinase domain (JH1), 2.12 μM ATP. The format is biochemical. As to the method:
as §1

For experiment [3], the system named is TYK2 Pseudokinase (JH2). Put plainly: HEK-Blue IL-23 reporter assay (SEAP) for profiling TYK2 pseudokinase (JH2) inhibition. It counts as cell-based. Particulars: HEK-Blue IL-23 cells, 10 ng/mL human recombinant IL-23, SEAP reporter; read-out: IL23 IC50 (TYK2 inhibitory activity). The method, then:
(§3) HEK-Blue™ IL-23 and IFNα/β cells with a stably-integrated cytokine receptor and STAT3 or STAT1 express STAT-inducible secreted embryonic alkaline phosphatase (SEAP) reporter gene upon cytokine stimulation. These cells are plated in DMEM (Gibco) containing 10% heat-inactivated FBS (Gibco) and 100 U/mL PenStrep (Gibco) at 37° C. under 5% CO2 conditions for 20-22 hours. The cells are then pretreated with serially diluted test compounds for 60 min prior to stimulation with either 10 ng/mL human recombinant IL-23 (Miltenyl Biotech) or 1 ng/mL human recombinant IFNα (InvivoGen) for 22-24 hours for IL-23 or 16-18 h for IFNα. SEAP induction is measured using the QUANTI Blue™ Solution (InvivoGen) according to the manufacturer's instructions.

Experiment [4] relates to TYK2 Pseudokinase (JH2). The experiment is described as follows: HEK-Blue IFNα/β reporter assay (SEAP) for profiling TYK2 pseudokinase (JH2) inhibition. It counts as cell-based. Particulars: HEK-Blue IFNα/β cells, 1 ng/mL human recombinant IFNα, read-out: IFNα IC50 (TYK2 inhibitory activity). The method, then:
as §3

Structures are written as SMILES. pIC50: −log10 of the molar value.

T2 sequence (O60674 849-1124 limits assumed): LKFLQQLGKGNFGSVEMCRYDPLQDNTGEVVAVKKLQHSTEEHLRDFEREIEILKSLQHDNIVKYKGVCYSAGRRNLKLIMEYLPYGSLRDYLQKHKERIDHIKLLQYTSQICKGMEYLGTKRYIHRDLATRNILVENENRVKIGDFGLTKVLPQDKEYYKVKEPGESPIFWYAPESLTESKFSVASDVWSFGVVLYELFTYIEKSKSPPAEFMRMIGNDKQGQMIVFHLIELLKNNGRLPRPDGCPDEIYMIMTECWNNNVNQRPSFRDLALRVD
T4 sequence (P52333 822-1111 limits assumed): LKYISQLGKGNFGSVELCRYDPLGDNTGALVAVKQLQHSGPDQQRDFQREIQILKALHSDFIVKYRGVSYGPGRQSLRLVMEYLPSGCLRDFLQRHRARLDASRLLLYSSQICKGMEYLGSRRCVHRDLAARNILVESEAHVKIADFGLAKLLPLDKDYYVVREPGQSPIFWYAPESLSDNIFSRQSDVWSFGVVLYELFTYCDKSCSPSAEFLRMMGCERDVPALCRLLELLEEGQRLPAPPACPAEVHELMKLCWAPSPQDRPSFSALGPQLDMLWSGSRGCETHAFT
T3 sequence (P23458 875-1153 limits assumed): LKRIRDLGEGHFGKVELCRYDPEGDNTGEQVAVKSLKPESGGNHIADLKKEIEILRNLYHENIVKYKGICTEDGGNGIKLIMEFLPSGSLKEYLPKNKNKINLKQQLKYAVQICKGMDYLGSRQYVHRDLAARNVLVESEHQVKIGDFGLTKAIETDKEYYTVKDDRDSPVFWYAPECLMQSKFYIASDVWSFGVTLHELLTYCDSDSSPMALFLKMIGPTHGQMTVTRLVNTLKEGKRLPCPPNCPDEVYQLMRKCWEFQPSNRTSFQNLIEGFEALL

In general, pIC50 refers to the negative decadic logarithm of the IC50, by convention in mol/L. For the compound `[2H]C([2H])([2H])NC(=O)c1cnc(NC(=O)C2CC2)cc1Nc1cccc2c1N(C)Cc1cncnc1-2` [Compound 4, 6-(cyclopropanecarboxamido)-N-(methyl-d3)-4-((6-methyl-5,6-dihydropyrimido[5,4-c]quinolin-7-yl)amino)nicotinamide], the pIC50 on TYK2-JH1 was below 6.00; in experiment [1], below 6.00; on JAK2-JH1, below 6.00; at JAK1-JH1 it was 6.00 to 6.52; in experiment [2] it was below 6.00; against JAK3-JH1 it was below 6.00. In addition, the pIC50 in the experiment on TYK2 Pseudokinase (JH2) [3] and in the experiment with TYK2 Pseudokinase (JH2) [4] was above 7.52 in each case.
For `[2H]C([2H])([2H])NC(=O)c1cnc(NC(=O)C2CC2)cc1Nc1cccc2c1N(C)Cc1cc(F)cnc1-2` [Compound 5, 6-(cyclopropanecarboxamido)-4-((3-fluoro-6-methyl-5,6-dihydrobenzo[h][1,6]naphthyridin-7-yl)amino)-N-(methyl-d3)nicotinamide], the pIC50 (against TYK2-JH1; in experiment [1]; against JAK2-JH1; at JAK1-JH1; in experiment [2]; against JAK3-JH1) was below 6.00 each time. The pIC50 in the experiment with TYK2 Pseudokinase (JH2) [3] and in the experiment on TYK2 Pseudokinase (JH2) [4] was above 7.52 in each case.
`[2H]C([2H])([2H])NC(=O)c1nnc(NC(=O)C2CC2)cc1Nc1cccc2c1N(C)Cc1cncnc1-2` [Compound 6, 6-(cyclopropanecarboxamido)-N-(methyl-d3)-4-((6-methyl-5,6-dihydropyrimido[5,4-c]quinolin-7-yl)amino)pyridazine-3-carboxamide]: the pIC50 at TYK2-JH1 is below 6.00; in experiment [1], below 6.00; against JAK2-JH1, below 6.00; on JAK1-JH1 it was 6.00 to 6.52; in experiment [2], 6.52 to 7.52; against JAK3-JH1 it was below 6.00. In addition, the negative logarithm of the IC50 (pIC50) in the experiment on TYK2 Pseudokinase (JH2) [3] and with TYK2 Pseudokinase (JH2) [4] was above 7.52 each time.
On to `[2H]C([2H])([2H])NC(=O)c1nnc(NC(=O)C2CC2)cc1Nc1cccc2c1N(C)Cc1cc(F)cnc1-2` [Compound 7, 6-(cyclopropanecarboxamido)-4-((3-fluoro-6-methyl-5,6-dihydrobenzo[h][1,6]naphthyridin-7-yl)amino)-N-(methyl-d3)pyridazine-3-carboxamide], for which the negative-log IC50 (pIC50) at TYK2-JH1 is below 6.00; in experiment [1] it was 6.00 to 6.52; against JAK2-JH1 it was below 6.00; on JAK1-JH1, below 6.00; in experiment [2], 6.52 to 7.52; on JAK3-JH1, below 6.00. The pIC50 with TYK2 Pseudokinase (JH2) [3] is above 7.52; in the experiment on TYK2 Pseudokinase (JH2) [4], 6.52 to 7.52.
With `[2H]C([2H])([2H])NC(=O)c1cnc(NC(=O)C2CC2)cc1Nc1cccc2c1N(C)Cc1nccnc1-2` [Compound 8, 6-(cyclopropanecarboxamido)-N-(methyl-d3)-4-((6-methyl-5,6-dihydropyrazino[2,3-c]quinolin-7-yl)amino)nicotinamide], the pIC50 against TYK2-JH1 was below 6.00; in experiment [1] it was below 6.00; on JAK2-JH1, below 6.00; against JAK1-JH1, below 6.00; in experiment [2], 6.52 to 7.52; against JAK3-JH1, below 6.00. For the same compound, the pIC50 in the experiment on TYK2 Pseudokinase (JH2) [3] and in the experiment on TYK2 Pseudokinase (JH2) [4] was above 7.52 each time.
In the case of `[2H]C([2H])([2H])NC(=O)c1nnc(NC(=O)C2CC2)cc1Nc1cccc2c1N(C)Cc1nccnc1-2` [Compound 16, 6-(cyclopropanecarboxamido)-N-(methyl-d3)-4-((6-methyl-5,6-dihydropyrazino[2,3-c]quinolin-7-yl)amino)pyridazine-3-carboxamide], the pIC50 on TYK2-JH1 was below 6.00; in experiment [1] it was below 6.00; against JAK2-JH1, below 6.00; against JAK1-JH1, below 6.00; in experiment [2], 6.52 to 7.52; at JAK3-JH1 it was below 6.00. The pIC50 in the experiment on TYK2 Pseudokinase (JH2) [3] and in the experiment with TYK2 Pseudokinase (JH2) [4] was above 7.52 in each case.
On to `[2H]C([2H])([2H])NC(=O)c1cnc(NC(=O)C2CC2)cc1Nc1cccc2c1N(C([2H])([2H])[2H])Cc1nccnc1-2` [Compound 17, 6-(cyclopropanecarboxamido)-N-(methyl-d3)-4-((6-(methyl-d3)-5,6-dihydropyrazino[2,3-c]quinolin-7-yl)amino)nicotinamide], for which the pIC50 was below 6.00 on TYK2-JH1; below 6.00 in experiment [1]; below 6.00 at JAK2-JH1; below 6.00 against JAK1-JH1; 6.52 to 7.52 in experiment [2]; below 6.00 against JAK3-JH1. Besides, the negative logarithm of the IC50 (pIC50) in the experiment on TYK2 Pseudokinase (JH2) [3] and with TYK2 Pseudokinase (JH2) [4] was above 7.52 each time.
As for `[2H]C([2H])([2H])NC(=O)c1nnc(NC(=O)C2CC2)cc1Nc1cccc2c1N(C([2H])([2H])[2H])Cc1nccnc1-2` [Compound 18, 6-(cyclopropanecarboxamido)-N-(methyl-d3)-4-((6-(methyl-d3)-5,6-dihydropyrazino[2,3-c]quinolin-7-yl)amino)pyridazine-3-carboxamide], the pIC50 against TYK2-JH1 was below 6.00; in experiment [1], 6.00 to 6.52; on JAK2-JH1 it was below 6.00; against JAK1-JH1 it was below 6.00; in experiment [2], 6.52 to 7.52; against JAK3-JH1 it was below 6.00. Also, the negative logarithm of the IC50 (pIC50) with TYK2 Pseudokinase (JH2) [3] and in the experiment on TYK2 Pseudokinase (JH2) [4] was above 7.52 in each case.
For the compound `[2H]C([2H])([2H])NC(=O)c1nnc(NC(=O)C2CC2)cc1Nc1cccc2c1N(C)Cc1cnn(C)c(=O)c1-2` [Compound 27, 6-(cyclopropanecarboxamido)-4-((2,6-dimethyl-1-oxo-1,2,5,6-tetrahydropyridazino[4,5-c]quinolin-7-yl)amino)-N-(methyl-d3)pyridazine-3-carboxamide], the negative logarithm of the IC50 (pIC50) is below 6.00 at TYK2-JH1; 6.00 to 6.52 in experiment [1]; below 6.00 against JAK2-JH1; below 6.00 against JAK1-JH1; 6.52 to 7.52 in experiment [2]; below 6.00 against JAK3-JH1. The pIC50 in the experiment on TYK2 Pseudokinase (JH2) [3] and with TYK2 Pseudokinase (JH2) [4] was above 7.52 throughout.
Regarding `[2H]C([2H])([2H])NC(=O)c1cnc(NC(=O)C2CC2)cc1Nc1cccc2c1N(C)Cc1cnn(C)c(=O)c1-2` [Compound 28, 6-(cyclopropanecarboxamido)-4-((2,6-dimethyl-1-oxo-1,2,5,6-tetrahydropyridazino[4,5-c]quinolin-7-yl)amino)-N-(methyl-d3)nicotinamide], the negative-log IC50 (pIC50) at TYK2-JH1 is below 6.00; in experiment [1] it was below 6.00; against JAK2-JH1, below 6.00; against JAK1-JH1 it was below 6.00; in experiment [2] it was 6.52 to 7.52; against JAK3-JH1 it was below 6.00. In addition, the negative-log IC50 (pIC50) in the experiment with TYK2 Pseudokinase (JH2) [3] and in the experiment on TYK2 Pseudokinase (JH2) [4] was above 7.52 in each case.
